The target in this assay is T1, human ΔF508-CFTR (Homo sapiens, UniProt P13569, DEL508-508).
T1 construct: expressed in transfected cells
Nature of the assay: CFTR-YFP high throughput assay, CFTR corrector protocol (YFP iodide flux quench). It is filed as cell-based. The conditions noted are these: FRT cells expressing human ΔF508-CFTR and YFP-H148Q/I152L, 24-26 h incubation with compound; for Emax: normalized to the positive control, read-out: EMAX (% Efficacy, EMAX normalized to the positive control); for EC50: stimulated with 20 μM Forskolin & 30 μM P3. Here is the method: Assays for Detecting and Measuring the Effect of Compounds on dF508-CFTR Channels CFRT-YFP High Throughput Assay-CFTR Corrector Protocol:
This protocol is designed to selectively screen small molecule compounds for F508del CFTR corrector activities in the HTS YFP flux assay. In this protocol, the cells are incubated with testing compounds for 24 hours, washed with PBS, stimulated with forskolin and a standard potentiator, and read on a 384-well HTS plate reader, such as the Hamamatsu FDDD-6000.
YFP fluorescence intensity is acquired at high speed before and after iodide buffer is injected to the assay cells. Iodide enters the cells via active CFTR channels in the plasma membrane, and quenches the YFP fluorescence. The rate of fluorescence quenching is proportionally related to the total CFTR activities in the cell membrane. dF508-CFTR corrector accelerates YFP quenching by increasing the number of CFTR molecules in the testing cell plasma membrane.
This method was initially developed for bench top plate readers (Galietta et al., 2001), and was adapted to the HTS format (Sui et al. Assay Drug Dev. Technol. 2010).
Fisher Rat Thyroid (FRT) cells stably expressing both human ΔF508-CFTR and a halide-sensitive yellow fluorescent protein (YFP-H148Q/I152L 25,22) (Galietta et al., Am. J. Physiol Cell Physiol, 281(5), C1734, 2001) were cultured on plastic surface in Coon's modified Ham's F12 medium supplemented with FBS 10%, L-glutamine 2 mM, penicillin 100 U/ml, and streptomycin 100 μg/ml. G418 (0.75-1.0 mg/ml) and zeocin (3.2 ug/ml) were used for selection of FRT cells expressing ΔF508-CFTR and YFP. For primary screening, FRT cells were plated into 384-well black wall, transparent bottom microtiter plates (Costar; Corning Inc.) at a cell density of 20,000-40,000 per well. Test compound was applied to the cells at varying concentrations ranging from 2 nM-[…] in either a 2-fold or 3-fold dilution series. Cells were incubated in a cell culture incubator at 37° C. with 5% CO2 for 24-26 h. Assay plates were washed with DPBS media (Thermo, cat #SH30028.02) to remove unbound cells and compound. Stimulation media (25 μL) containing 20 μM Forskolin & 30 μM P3 [6-(Ethyl-phenyl-sulfonyl)-4-oxo-1,4-dihydro-quinoline-3-carboxylic acid 2-methoxy-benzylamide] in Hams F-12 coon's modified media was added to the plate wells and incubated at room temperature for 60-120 min. 25 μL of HEPES-PBS -I buffer (10 mM HEPES, 1 mM MgCl2, 3 mM KCl, 1 mM CaCl2, 150 mM NaI) was then added and fluorescence quench curves (Excitation 500 nm/Emission 540 nm; exposure 136 ms) were immediately recorded on an FDSS-6000 plate reader (Hamamatsu). Quench rates were derived from least squares fitting of the data as described by Sui et al. (2010).

Each structure is given as a SMILES string.

T1 sequence (P13569 with tags, fused parts or gaps DEL508-508): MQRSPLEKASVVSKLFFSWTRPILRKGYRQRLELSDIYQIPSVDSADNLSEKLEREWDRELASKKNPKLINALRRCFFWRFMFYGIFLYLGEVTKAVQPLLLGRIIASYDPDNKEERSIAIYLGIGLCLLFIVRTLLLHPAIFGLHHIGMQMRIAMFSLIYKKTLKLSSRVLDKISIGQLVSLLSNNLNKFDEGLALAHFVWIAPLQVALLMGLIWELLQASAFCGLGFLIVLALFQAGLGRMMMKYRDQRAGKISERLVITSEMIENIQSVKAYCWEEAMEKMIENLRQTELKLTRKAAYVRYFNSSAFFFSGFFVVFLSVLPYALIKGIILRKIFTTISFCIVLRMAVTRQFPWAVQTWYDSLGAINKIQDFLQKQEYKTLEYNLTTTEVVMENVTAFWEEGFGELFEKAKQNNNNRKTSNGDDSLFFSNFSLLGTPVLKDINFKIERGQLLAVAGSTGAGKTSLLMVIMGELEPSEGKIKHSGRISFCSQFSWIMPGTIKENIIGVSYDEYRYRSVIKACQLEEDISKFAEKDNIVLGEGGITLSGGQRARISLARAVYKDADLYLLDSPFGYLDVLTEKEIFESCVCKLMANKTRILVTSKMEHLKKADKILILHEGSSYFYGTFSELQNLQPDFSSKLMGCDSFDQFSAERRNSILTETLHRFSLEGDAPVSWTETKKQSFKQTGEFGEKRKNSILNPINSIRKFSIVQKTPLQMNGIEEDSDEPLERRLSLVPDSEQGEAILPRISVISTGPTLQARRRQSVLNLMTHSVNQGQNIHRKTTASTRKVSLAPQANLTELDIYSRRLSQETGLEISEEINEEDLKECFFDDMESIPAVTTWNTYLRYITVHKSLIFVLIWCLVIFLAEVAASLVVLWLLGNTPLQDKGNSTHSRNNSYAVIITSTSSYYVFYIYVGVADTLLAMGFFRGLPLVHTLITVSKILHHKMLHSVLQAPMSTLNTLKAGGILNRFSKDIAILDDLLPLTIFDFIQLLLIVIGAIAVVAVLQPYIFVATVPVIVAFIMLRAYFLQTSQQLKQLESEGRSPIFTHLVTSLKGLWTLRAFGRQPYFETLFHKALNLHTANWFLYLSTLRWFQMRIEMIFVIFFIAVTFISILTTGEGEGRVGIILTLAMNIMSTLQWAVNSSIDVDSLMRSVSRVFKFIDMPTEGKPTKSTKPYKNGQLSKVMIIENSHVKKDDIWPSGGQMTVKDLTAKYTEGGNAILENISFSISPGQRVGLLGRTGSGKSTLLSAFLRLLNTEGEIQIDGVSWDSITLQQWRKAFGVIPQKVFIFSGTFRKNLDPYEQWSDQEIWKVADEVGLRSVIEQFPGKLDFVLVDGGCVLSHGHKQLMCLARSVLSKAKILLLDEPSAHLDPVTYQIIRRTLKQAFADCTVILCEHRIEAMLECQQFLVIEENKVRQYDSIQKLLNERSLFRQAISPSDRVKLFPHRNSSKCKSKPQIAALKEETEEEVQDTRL

Take `COc1ccc(S(=O)(=O)N2CCC(n3c(-c4ccccc4)nc4cccnc43)CC2)cc1` [Example 19]: the Emax lay in the range of 30 to 80% and the concentration giving a half-maximal response (EC50) was under 10 µM.

Turning to `COc1ccc(C(=O)N2CCC(n3c(-c4ccccc4)nc4cccnc43)CC2)cc1Cl` [Example 21], the Emax is 10 to 30% and the concentration for a half-maximal effect (EC50) was over 20 µM.

Take `COc1ccc(S(=O)(=O)N2CCC(n3c(-c4ccc(Cl)cc4)nc4cccnc43)CC2)cc1Cl` [Example 29]: the maximum response (Emax) was in the range of 10 to 30% and the EC50 was under 10 µM.

Take `Cc1ccc2nc(-c3ccccc3Cl)n(C3CCN(S(=O)(=O)c4ccc(C)c(Cl)c4)CC3)c2n1` [Example 7, 3-(1-((3-Chloro-4-methylphenyl)sulfonyl)piperidin-4-yl)-2-(2-chlorophenyl)-5-methyl-3H-imidazo[4,5-b]pyridine]: the Emax lay within 30 to 80% and the EC50 was under 10 µM.

In the case of `COc1ccc(S(=O)(=O)N2CCC(n3c(-c4ccccc4)nc4cccnc43)CC2)cc1Cl` [Example 16], the Emax is over 80% and the EC50 is 10 to 20 µM.

Take `COc1ccc(S(=O)(=O)N2CCC(n3c(-c4ccccc4F)nc4cccnc43)CC2)cc1Cl` [Example 11, 3-(1-((3-Chloro-4-methoxyphenyl)sulfonyl)piperidin-4-yl)-2-(2-fluorophenyl)-3H-imidazo[4,5-b]pyridine]: the Emax is 30 to 80% and the EC50 is under 10 µM.

Turning to `COc1ccc(S(=O)(=O)N2CCC(n3c(C4CCCC4)nc4cccnc43)CC2)cc1Cl` [Example 25], the Emax is 30 to 80% and the EC50 is under 10 µM.

In the case of `Cc1ccc2nc(-c3ccncc3Cl)n(C3CCN(S(=O)(=O)c4ccc5c(c4)OC(F)(F)O5)CC3)c2n1` [Example 13, 2-(3-Chloropyridin-4-yl)-3-(1-((2,2-difluorobenzo[d][1,3]dioxol-5-yl)sulfonyl)piperidin-4-yl)-5-methyl-3H-imidazo[4,5-b]pyridine], the Emax was 30 to 80% and the EC50 is under 10 µM.

Regarding `Cc1ccc(S(=O)(=O)N2CCC(n3c(-c4ccccc4Cl)nc4cccnc43)CC2)cc1Cl` [Example 10, 3-(1-((3-Chloro-4-methylphenyl)sulfonyl)piperidin-4-yl)-2-(2-chlorophenyl)-3H-imidazo[4,5-b]pyridine], the Emax lay in the range of 30 to 80% and the EC50 is under 10 µM.

For the compound `Cc1ccc2nc(-c3cccnc3Cl)n(C3CCN(S(=O)(=O)c4ccc5c(c4)OC(F)(F)O5)CC3)c2n1` [Example 15, 2-(2-Chloropyridin-3-yl)-3-(1-((2,2-difluorobenzo[d][1,3]dioxol-5-yl)sulfonyl)piperidin-4-yl)-5-methyl-3H-imidazo[4,5-b]pyridine], the Emax is 30 to 80% and the EC50 was under 10 µM.

With `O=S(=O)(c1ccc2c(c1)OCO2)N1CCC(n2c(-c3ccccc3Cl)nc3cccnc32)CC1` [Example 1, 3-(1-(Benzo[d][1,3]dioxol-5-ylsulfonyl)piperidin-4-yl)-2-(2-chlorophenyl)-3H-imidazo[4,5-b]pyridine], the Emax was in the range of 30 to 80% and the EC50 is under 10 µM.

Turning to `COc1ccc(S(=O)(=O)N2CCC(n3c(-c4ccccc4)nc4ccc(Cl)nc43)CC2)cc1Cl` [Example 36], the Emax was in the range of 10 to 30% and the concentration for a half-maximal effect (EC50) was under 10 µM.

For the compound `COc1ccc(S(=O)(=O)N2CCC(n3c(-c4ccccc4)nc4ccc(C)nc43)CC2)cc1Cl` [Example 3, 3-(1-((3-Chloro-4-methoxyphenyl)sulfonyl)piperidin-4-yl)-5-methyl-2-phenyl-3H-imidazo[4,5-b]pyridine], the Emax lay in the range of 30 to 80% and the EC50 was under 10 µM.

Turning to `COc1ccc(S(=O)(=O)N2CCC(n3c(-c4ccc5[nH]cnc5c4)nc4cccnc43)CC2)cc1Cl` [Example 34], the Emax fell in the range of 30 to 80% and the EC50 was under 10 µM.

`COc1ccc(S(=O)(=O)N2CCC(n3c(-c4ccccc4Cl)nc4ccc(C)nc43)CC2)cc1F` [Example 8, 2-(2-Chlorophenyl)-3-(1-((3-fluoro-4-methyoxyphenyl)sulfonyl)piperidin-4-yl)-5-methyl-3H-imidazo[4,5-b]pyridine]: the Emax is 30 to 80% and the EC50 is under 10 µM.

As for `COc1ccc(S(=O)(=O)N2CCC(n3c(-c4ccccc4Cl)nc4cccnc43)CC2)cc1Cl` [Example 6, 3-(1-((3-Chloro-4-methoxyphenyl)sulfonyl)piperidin-4-yl)-2-(2-chlorophenyl)-3H-imidazo[4,5-b]pyridine], the Emax was in the range of 30 to 80% and the 50% effective concentration (EC50) was under 10 µM.

For `Cc1ccc2nc(-c3ccncc3Cl)n(C3CCN(S(=O)(=O)c4ccc5c(c4)OCO5)CC3)c2n1` [Example 14, 3-(1-(Benzo[d][1,3]dioxol-5-ylsulfonyl)piperidin-4-yl)-2-(3-chloropyridin-4-yl)-5-methyl-3H-imidazo[4,5-b]pyridine], the Emax was 10 to 30% and the EC50 was over 20 µM.

Turning to `COc1ccc(S(=O)(=O)N2CCC(n3c(-c4ccccc4)nc4cc(C)cnc43)CC2)cc1Cl` [Example 26], the Emax fell in the range of 30 to 80% and the EC50 is under 10 µM.

A word on the Emax: it is the maximal effect, on the per cent scale that the assay sets. In general, EC50 refers to the concentration at which the effect is half-maximal.

(Values after US9771327B2, “Compounds and methods for the treatment of cystic fibrosis” (FLATLEY DISCOVERY LAB, LLC, priority 2013, dated 2017).)
